Laboratory results from patent publication EP0048954A2, “Beta-lactam compounds, process for the preparation thereof and intermediate products for the preparation thereof” (SAGAMI CHEMICAL RESEARCH CENTER, priority 1980, dated 1982).
Values after ≈ are worked out from the molar mass of the structure shown. Structures can show the parent of a compound that is named as a salt. Where two headings read alike, the source gives them in different places.

Columns and labels:
Assay in all cases: Antibacterial activity, minimum inhibition concentration (method of The Chemotherapy Association, Japan)
Assay type in all cases: cell-based
Proteus rettgeri NIH-96 = settings: Providencia rettgeri
Excerpt: (§1) The abbreviations A to P will be used in the following Tables 2 to 8.
(§2) Test results are shown in terms of the minimum inhibition concentration (µg/mℓ.) in the following Tables 2 to 8.

Proteus vulgaris OX-19 = settings: Proteus vulgaris
Excerpt: as §1, §2

[1] = test system: Enterobactor cloacae NCTC-9394; settings: strain N: Enterobactor cloacae NCTC-9394; read-out: minimum inhibition concentration
Summary of the method: (§3)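 Following the committee-amended Japanese standard for MIC measurement, inhibitory concentrations were obtained and expressed as µg/mℓ.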

Escherichia coli NIHJ = settings: Escherichia coli, strain K: Escherichia coli NIHJ; read-out: minimum inhibition concentration
Summary of the method: as §3

[2] = test system: Proteus inconstans NIH-118; settings: Providencia alcalifaciens
Summary of the method: as §3

[3] = test system: Pseudomonas aeruginosa NCTC-10490; settings: Pseudomonas aeruginosa
Summary of the method: as §3

[4] = test system: Staphylococcus aureus 6538-P
Summary of the method: as §3

[5] = test system: Bacillus subtilis ATCC 6633; settings: Bacillus subtilis, ATCC6633, strain B: Bacillus subtilis ATCC 6633; read-out: minimum inhibition concentration
Summary of the method: as §3

[6] = test system: Citrobactor freundii NIH-10018 -68; settings: strain O: Citrobactor freundii NIH-10018 -68; read-out: minimum inhibition concentration
Summary of the method: as §3

Escherichia coli NIHJC-2 = settings: Escherichia coli, NIHJC2, strain L: Escherichia coli NIHJC-2; read-out: minimum inhibition concentration
Summary of the method: as §3

Klebsiella pneumoniae = settings: Klebsiella pneumoniae, strain C: Klebsiella pneumoniae; read-out: minimum inhibition concentration
Summary of the method: as §3

[7] = test system: Proteus mirabillis B-30-2 IFO-3849; settings: strain G: Proteus mirabillis B-30-2 IFO-3849; read-out: minimum inhibition concentration
Summary of the method: as §3

Proteus morgani Kono = settings: strain J: Proteus morgani Kono; read-out: minimum inhibition concentration
Summary of the method: as §3

[8] = test system: Salmonella typhimurium 3173; settings: Salmonella enterica, TYPHIMURIUM, strain D: Salmonella typhimurium 3173; read-out: minimum inhibition concentration
Summary of the method: as §3

Serratia marcescens 1023 = settings: Serratia marcescens, 1023, strain E: Serratia marcescens 1023; read-out: minimum inhibition concentration
Summary of the method: as §3

[9] = test system: Serratia marcescens IFO-3736; settings: Serratia marcescens, IFO3736, strain F: Serratia marcescens IFO-3736; read-out: minimum inhibition concentration
Summary of the method: as §3

[10] = NIH96, strain I: Proteus rettgeri NIH-96, read-out: minimum inhibition concentration
[11] = OX19, strain H: Proteus vulgaris OX-19, read-out: minimum inhibition concentration
[12] = NCTC10490, strain M: Pseudomonas aeruginosa NCTC-10490, read-out: minimum inhibition concentration
[13] = strain A: Staphylococcus aureus 6538-P, read-out: minimum inhibition concentration
[14] = NIH118, strain P: Proteus inconstans NIH-118, read-out: minimum inhibition concentration

Row | Compound | MIC [1] [µg/mL] | MIC (Escherichia coli NIHJ) [µg/mL] | MIC (Proteus rettgeri NIH-96; [10]) [µg/mL] | MIC (Proteus vulgaris OX-19; [11]) [µg/mL] | MIC [5] [µg/mL] | MIC [6] [µg/mL] | MIC (Escherichia coli NIHJC-2) [µg/mL] | MIC (Klebsiella pneumoniae) [µg/mL] | MIC [7] [µg/mL] | MIC (Proteus morgani Kono) [µg/mL] | MIC [3, 12] [µg/mL] | MIC [8] [µg/mL] | MIC (Serratia marcescens 1023) [µg/mL] | MIC [9] [µg/mL] | MIC [4, 13] [µg/mL] | further results
1 | CC(=O)OCC1=C(C(=O)O)N2C(=O)C(NC(=O)Cc3cccs3)C2SC1 (stereo not shown) [Cephalo-thin Na salt, reference compound] | > 100 | 25 |  |  |  |  |  |  |  |  |  |  |  |  |  | MIC (Proteus rettgeri NIH-96; NIH96, read-out: minimum inhibition concentration, strain I: Proteus rettgeri NIH-96): > 100 µg/mL; MIC (Proteus vulgaris OX-19; OX19, read-out: minimum inhibition concentration, strain H: Proteus vulgaris OX-19): > 100 µg/mL; MIC ([2]; NIH118, read-out: minimum inhibition concentration): > 100 µg/mL; MIC ([3]; NCTC10490, read-out: minimum inhibition concentration): > 100 µg/mL; MIC ([4]; Staphylococcus aureus, 6538P, read-out: minimum inhibition concentration, strain A: Staphylococcus aureus 6538-P): 0.1 µg/mL
2 | CC(=O)OCC1=C(C(=O)O)N2C(=O)C(NC(=O)C(=C(Cl)Cl)c3ccc(Cl)cc3)[C@H]2SC1 (stereo partly shown) [Compound 29, 7-[2-dichloromethylene-2-(4-chlorophenyl)acetamido]-3-acetoxymethyl-3-cephem-4-carboxylic acid] | > 100 | 100 (≈ 198 µM) | 3.12 (≈ 6.18 µM) | > 100 | 1.56 (≈ 3.08 µM) | > 100 | > 100 | > 100 | > 100 | > 100 | > 100 | > 100 | 12.5 (≈ 24.7 µM) | > 100 | > 100 | 
3 | CC(=O)OCC1=C(C(=O)O)N2C(=O)C(NC(=O)C(=C(Cl)Cl)c3ccc(Cl)c(Cl)c3)[C@H]2SC1 (stereo partly shown) [Compound 30, 7-[2-dichloromethylene-2-(3,4-dichlorophenyl)acetamido]-3-acetoxymethyl-3-cephem-4-carboxylic acid] | > 100 | 100 (≈ 185 µM) | 6.25 (≈ 11.6 µM) | > 100 | 0.78 (≈ 1.44 µM) | > 100 | > 100 | > 100 | > 100 | > 100 | 100 (≈ 185 µM) | > 100 | 6.25 (≈ 11.6 µM) | > 100 | 100 (≈ 185 µM) | 
4 | CC(=O)OCC1=C(C(=O)O)N2C(=O)C(NC(=O)C(=C(Cl)Cl)c3ccc(Cl)s3)[C@H]2SC1 (stereo partly shown) [Compound 31, 7-[2-dichloromethylene-2-(5-chloro-2-thienyl)acetamido]-3-acetoxymethyl-3-cephem-4-carboxylic acid] | > 100 | 25 (≈ 48.8 µM) | 1.56 (≈ 3.05 µM) | 100 (≈ 195 µM) | 6.25 (≈ 12.2 µM) | > 100 | > 100 | > 100 | > 100 | > 100 | 100 (≈ 195 µM) | > 100 | 100 (≈ 195 µM) | > 100 | 0.2 (≈ 0.391 µM) | 
5 | CC(=O)OCC1=C(C(=O)O)N2C(=O)C(NC(=O)C(=C(Cl)Cl)c3ccc(Br)s3)[C@H]2SC1 (stereo partly shown) [Compound 32, 7-[2-dichloromethylene-2-(5-bromo-2-thienyl)acetamido]-3-acetoxymethyl-3-cephem-4-carboxylic acid] | > 100 | 25 (≈ 44.9 µM) | 0.78 (≈ 1.4 µM) | 100 (≈ 180 µM) | 6.25 (≈ 11.2 µM) | > 100 | > 100 | > 100 | > 100 | > 100 | 50 (≈ 89.9 µM) | > 100 | 12.5 (≈ 22.5 µM) | > 100 | 0.1 (≈ 0.18 µM) | 
6 | CC(=O)OCC1=C(C(=O)O)N2C(=O)C(NC(=O)C(=C(Cl)Cl)c3ccco3)[C@H]2SC1 (stereo partly shown) [Compound 33, 7-[2-dichloromethylene-2-(2-furyl)acetamido]-3-acetoxymethyl-3-cephem-4-carboxylic acid] | 25 (≈ 54.2 µM) | 1.56 (≈ 3.38 µM) | 0.1 (≈ 0.217 µM) | 6.25 (≈ 13.5 µM) | 6.25 (≈ 13.5 µM) | 50 (≈ 108 µM) | 100 (≈ 217 µM) | 100 (≈ 217 µM) | 100 (≈ 217 µM) | > 100 | 12.5 (≈ 27.1 µM) | 50 (≈ 108 µM) | 25 (≈ 54.2 µM) | 100 (≈ 217 µM) | 0.39 (≈ 0.845 µM) | 
7 | Cn1nnnc1SCC1=C(C(=O)O)N2C(=O)C(NC(=O)C(=CCl)c3cccs3)C2SC1 (stereo not drawn) [Compound 34, 7-[2-chloromethylene-2-(2-thienyl)acetamido]-3-(l-methyl-lH-tetrazol-5-yl)thiomethyl-3-cephem-4-carboxylic acid] | 12.5 (≈ 25.1 µM) | 1.56 (≈ 3.13 µM) | 0.05 (≈ 0.1 µM) | 12.5 (≈ 25.1 µM) | 0.78 (≈ 1.56 µM) | 100 (≈ 200 µM) | 25 (≈ 50.1 µM) | 100 (≈ 200 µM) | 100 (≈ 200 µM) | 100 (≈ 200 µM) | 100 (≈ 200 µM) | 12.5 (≈ 25.1 µM) | 1.56 (≈ 3.13 µM) | 100 (≈ 200 µM) | 25 (≈ 50.1 µM) | 
8 | Cn1nnnc1SCC1=C(C(=O)O)N2C(=O)C(NC(=O)C(=C(Cl)Cl)c3ccsc3)C2SC1 (stereo not drawn) [Compound 35, 7-[2-dichloromethylene-2-(3-thienyl)acetamido]-3-(l-methyl-lH-tetrazol-5-yl)thiomethyl-3-cephem-4-carboxylic acid] | 12.5 (≈ 23.4 µM) | 3.12 (≈ 5.86 µM) | 0.1 (≈ 0.187 µM) | 25 (≈ 46.9 µM) | 3.12 (≈ 5.86 µM) | 100 (≈ 187 µM) | 50 (≈ 93.7 µM) | 50 (≈ 93.7 µM) | 100 (≈ 187 µM) | > 100 | 12.5 (≈ 23.4 µM) | 25 (≈ 46.9 µM) | 3.12 (≈ 5.86 µM) | 100 (≈ 187 µM) | 0.2 (≈ 0.375 µM) | 
9 | CC(=O)OCC1=C(C(=O)O)N2C(=O)C(NC(=O)C(=C(Cl)Cl)c3cccn3C)[C@H]2SC1 (stereo partly shown) [Compound 36, 7-[2-dichloromethylene-2-(1-methyl-2-pyrrolyl)acetamido]-3-acetoxymethyl-3-cephem-4-carboxylic acid] | > 100 | 50 (≈ 105 µM) | 1.56 (≈ 3.29 µM) | 50 (≈ 105 µM) | 12.5 (≈ 26.4 µM) | > 100 | > 100 | > 100 | > 100 | > 100 | > 100 | > 100 | 100 (≈ 211 µM) | > 100 | 0.78 (≈ 1.64 µM) | 
10 | CC1(C)S[C@@H]2C(NC(=O)C(=C(Cl)Cl)c3cccs3)C(=O)N2[C@H]1C(=O)O (stereo partly shown) [Compound 37, 6-[2-dichloromethylene-2-(2-thienyl)acetamido]-penicillanic acid] | 100 (≈ 237 µM) | 0.78 (≈ 1.85 µM) | 0.25 (≈ 0.593 µM) | 50 (≈ 119 µM) | 1.56 (≈ 3.7 µM) | > 100 | > 100 | > 100 | > 100 | > 100 | 6.25 (≈ 14.8 µM) | > 100 | 0.05 (≈ 0.119 µM) | > 100 | 0.1 (≈ 0.237 µM) | 
11 | Cn1nnnc1SCC1=C(C(=O)O)N2C(=O)C(NC(=O)C(=C(Cl)Cl)c3cccs3)C2SC1 (stereo not drawn) [Compound 39, 7-[2-dichloromethylene-2-(2-thienyl)acetamido]-3-(l-methyl-lH-tetrazol-5-yl)thiomethyl-3-cephem-4-carboxylic acid] | 12.5 (≈ 23.4 µM) | 0.39 (≈ 0.731 µM) | 0.05 (≈ 0.0937 µM) | 50 (≈ 93.7 µM) |  |  |  |  |  |  | 6.25 (≈ 11.7 µM) |  |  |  | 0.2 (≈ 0.375 µM) | MIC [2, 14]: 3.12 µg/mL (≈ 5.86 µM)
12 | CC(=O)OCC1=C(C(=O)O)N2C(=O)C(NC(=O)C(=C(Cl)Cl)c3ccsc3)[C@H]2SC1 (stereo partly shown) [Compound 40, 7-[2-dichloromethylene-2-(3-thienyl)acetamido]-3-acetoxymethyl-3-cephem-4-carboxylic acid] | 100 (≈ 209 µM) | 1.56 (≈ 3.27 µM) | 0.39 (≈ 0.817 µM) | 25 (≈ 52.4 µM) |  |  |  |  |  |  | 25 (≈ 52.4 µM) |  |  |  | 0.39 (≈ 0.817 µM) | MIC [2, 14]: 25 µg/mL (≈ 52.4 µM)
13 | CC(=O)OCC1=C(C(=O)O)N2C(=O)C(NC(=O)C(=C(Cl)Cl)c3cccs3)[C@H]2SC1 (stereo partly shown) [Compound 41, 7-[2-dichloromethylene-2-(2-thienyl)acetamido]-3-acetoxymethyl-3-cephem-4-carboxylic acid] | 50 (≈ 105 µM) | 0.39 (≈ 0.817 µM) | 50 (≈ 105 µM) | 0.39 (≈ 0.817 µM) |  |  |  |  |  |  | 25 (≈ 52.4 µM) |  |  |  | 0.2 (≈ 0.419 µM) | MIC [2, 14]: 1.56 µg/mL (≈ 3.27 µM)
